Assay results as given in patent publication US11654199B2 (BOLT BIOTHERAPEUTICS, INC., priority 2019, dated 2023).
pEC50: −log10 of the molar value.

Columns and labels:
[1] = molecular target: T1, human TLR7 (Homo sapiens, UniProt Q9NYK1); experiment: HEK293 NFKB reporter assay, human TLR7; assay type: cell-based; conditions: HEK293 NFKB reporter cells expressing human TLR7; read-out: HEK293 hTLR7 EC50
T1 construct: host or cells: HEK293 reporter cells
T1 sequence (Q9NYK1 27-1049): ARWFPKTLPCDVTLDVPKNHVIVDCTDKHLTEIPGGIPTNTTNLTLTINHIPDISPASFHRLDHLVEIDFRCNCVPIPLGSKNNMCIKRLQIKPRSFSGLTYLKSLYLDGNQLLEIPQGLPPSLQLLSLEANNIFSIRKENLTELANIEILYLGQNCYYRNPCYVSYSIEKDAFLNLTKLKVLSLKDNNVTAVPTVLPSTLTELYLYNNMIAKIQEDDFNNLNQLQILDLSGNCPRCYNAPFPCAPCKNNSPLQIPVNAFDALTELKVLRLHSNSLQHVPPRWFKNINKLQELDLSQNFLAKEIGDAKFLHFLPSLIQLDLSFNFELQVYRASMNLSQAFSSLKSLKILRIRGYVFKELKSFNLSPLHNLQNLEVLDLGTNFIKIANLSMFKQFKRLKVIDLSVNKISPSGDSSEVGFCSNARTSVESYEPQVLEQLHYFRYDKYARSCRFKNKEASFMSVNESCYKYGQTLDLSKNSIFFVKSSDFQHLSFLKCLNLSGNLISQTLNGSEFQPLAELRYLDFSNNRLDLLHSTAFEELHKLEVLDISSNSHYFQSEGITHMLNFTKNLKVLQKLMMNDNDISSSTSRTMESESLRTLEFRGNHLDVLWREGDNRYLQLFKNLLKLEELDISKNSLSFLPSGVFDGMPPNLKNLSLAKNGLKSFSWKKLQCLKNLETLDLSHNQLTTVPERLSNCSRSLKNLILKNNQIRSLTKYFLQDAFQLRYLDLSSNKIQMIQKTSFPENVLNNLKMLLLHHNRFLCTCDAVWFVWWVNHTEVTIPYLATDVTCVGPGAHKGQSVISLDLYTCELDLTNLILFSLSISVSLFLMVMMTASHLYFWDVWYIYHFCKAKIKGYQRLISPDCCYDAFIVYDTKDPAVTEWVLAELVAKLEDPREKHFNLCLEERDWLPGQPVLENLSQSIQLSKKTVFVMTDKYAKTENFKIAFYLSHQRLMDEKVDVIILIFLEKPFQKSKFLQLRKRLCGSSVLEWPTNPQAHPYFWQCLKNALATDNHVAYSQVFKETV
Method in brief: (§1)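 HEK293 NF-κB reporter cells expressing human TLR7 or TLR8 were seeded at 4×10^4 cells/well in HEK detection medium containing the stimulatory molecules. Reporter activity was read by absorbance at 620-655 nm.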

[2] = molecular target: T2, human TLR8 (Homo sapiens, UniProt Q9NR97); experiment: HEK293 NFKB reporter assay, human TLR8; assay type: cell-based; conditions: HEK293 NFKB reporter cells expressing human TLR8; read-out: HEK293 hTLR8 EC50
T2 construct: host or cells: HEK293 reporter cells
T2 sequence (Q9NR97 27-1041): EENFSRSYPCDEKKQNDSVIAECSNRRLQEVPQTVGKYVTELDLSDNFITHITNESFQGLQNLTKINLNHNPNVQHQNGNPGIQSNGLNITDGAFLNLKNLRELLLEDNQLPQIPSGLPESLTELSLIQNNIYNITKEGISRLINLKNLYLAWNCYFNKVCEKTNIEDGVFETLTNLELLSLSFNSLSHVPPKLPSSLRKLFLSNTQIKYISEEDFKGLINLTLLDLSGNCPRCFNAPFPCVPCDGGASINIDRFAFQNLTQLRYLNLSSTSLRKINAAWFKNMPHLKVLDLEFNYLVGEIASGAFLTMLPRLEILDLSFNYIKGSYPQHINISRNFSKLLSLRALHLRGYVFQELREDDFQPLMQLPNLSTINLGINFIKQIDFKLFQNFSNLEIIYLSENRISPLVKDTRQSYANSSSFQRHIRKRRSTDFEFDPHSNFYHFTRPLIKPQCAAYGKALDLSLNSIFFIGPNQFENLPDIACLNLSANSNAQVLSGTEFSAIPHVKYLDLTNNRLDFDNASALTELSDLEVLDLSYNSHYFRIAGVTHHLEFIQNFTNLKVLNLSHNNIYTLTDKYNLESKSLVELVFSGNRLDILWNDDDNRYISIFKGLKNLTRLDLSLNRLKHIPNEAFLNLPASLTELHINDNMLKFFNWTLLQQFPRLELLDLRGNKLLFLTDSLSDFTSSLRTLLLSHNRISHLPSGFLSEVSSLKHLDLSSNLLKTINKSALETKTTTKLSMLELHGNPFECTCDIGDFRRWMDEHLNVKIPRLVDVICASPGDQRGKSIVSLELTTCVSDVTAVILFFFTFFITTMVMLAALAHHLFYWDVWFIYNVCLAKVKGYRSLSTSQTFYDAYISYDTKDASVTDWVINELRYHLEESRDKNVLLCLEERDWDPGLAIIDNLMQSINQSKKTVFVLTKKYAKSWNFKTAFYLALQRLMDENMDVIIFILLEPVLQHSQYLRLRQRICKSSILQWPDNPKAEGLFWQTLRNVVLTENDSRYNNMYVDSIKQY
Method in brief: as §1

| pEC50 [1] | pEC50 [2] | Compound |
| --- | --- | --- |
| 5.31 | 5.86 | CCCN(CCC)C(=O)C1=Cc2sc(CN)cc2N=C(N)C1 [TAZ-84] |
| 5.44 | 5.07 | CCCN(OCC)C(=O)C1=Cc2sc(CN3CC4(C3)CN(C(=O)OC(C)(C)C)C4)cc2N=C(N)C1 [TAZ-208] |
| < 5.05 | 5.25 | CCCN(Cc1ccc(CNC(=O)OC(C)(C)C)cc1C(F)(F)F)C(=O)C1=Cc2sccc2N=C(N)C1 [TAZ-51] |
| 5.91 | 5.90 | CCCN(CCCNC(=O)OCc1ccccc1)C(=O)C1=Cc2sc(CCCCCNC(=O)OC(C)(C)C)cc2N=C(N)C1 [TAZ-162] |
| 5.37 | 5.38 | CCCN(CCC)C(=O)C1=Cc2sc(CNC(=O)CCNC(=O)OC(C)(C)C)cc2N=C(N)C1 [TAZ-91] |

The remaining lines, values behind:

| Compound | pEC50 [1] | pEC50 [2] |
| --- | --- | --- |
| CCCN(OCC)C(=O)C1=Cc2sc(CN3CCNCC3)cc2N=C(N)C1 [TAZ-94] | 5.21 | 7.00 |
| CCCN(OCC)C(=O)C1=Cc2sc(CN3CCC[C@@H](C(=O)OC)C3)cc2N=C(N)C1 [TAZ-223] | 5.42 | 5.50 |
| CCCN(CCCNC(=O)OC1CCC1)C(=O)C1=Cc2sc(C#CC3CCNCC3)cc2N=C(N)C1 [TAZ-164] | 6.32 | 5.41 |
| CCCN(OC(C)C)C(=O)C1=Cc2sc(CC3CNC3)cc2N=C(N)C1 [TAZ-253, 5-amino-2-(azetidin-3-ylmethyl)-N-isopropoxy-N-propyl-6H-thieno[3,2-b]azepine-7-carboxamide] | 5.14 | 6.72 |
| CCCN(Cc1ccc(CNC(=O)CCOC)cc1)C(=O)C1=Cc2sccc2N=C(N)C1 [TAZ-46] | < 5.05 | 5.80 |
